This passage reports Activity and IC50 results from ChEMBL document CHEMBL1142363, “Rhodanine derivatives as novel inhibitors of PDE4” (Bioorg Med Chem Lett, 2008).

Molecules are shown by their SMILES. pIC50: −log10 of the molar value. Activity calls are given as the source filed them. No cut-off for these calls is given here.

One may read the pIC50 as the negative decadic logarithm of the IC50, by convention in mol/L. High values mean a small IC50, low ones a large IC50.

In assay [1] the target is 3',5'-cyclic-AMP phosphodiesterase 4B (Homo sapiens, UniProt Q07343). Put plainly: Inhibition of PDE4B.
Chain of 3',5'-cyclic-AMP phosphodiesterase 4B (Q07343 whole entry): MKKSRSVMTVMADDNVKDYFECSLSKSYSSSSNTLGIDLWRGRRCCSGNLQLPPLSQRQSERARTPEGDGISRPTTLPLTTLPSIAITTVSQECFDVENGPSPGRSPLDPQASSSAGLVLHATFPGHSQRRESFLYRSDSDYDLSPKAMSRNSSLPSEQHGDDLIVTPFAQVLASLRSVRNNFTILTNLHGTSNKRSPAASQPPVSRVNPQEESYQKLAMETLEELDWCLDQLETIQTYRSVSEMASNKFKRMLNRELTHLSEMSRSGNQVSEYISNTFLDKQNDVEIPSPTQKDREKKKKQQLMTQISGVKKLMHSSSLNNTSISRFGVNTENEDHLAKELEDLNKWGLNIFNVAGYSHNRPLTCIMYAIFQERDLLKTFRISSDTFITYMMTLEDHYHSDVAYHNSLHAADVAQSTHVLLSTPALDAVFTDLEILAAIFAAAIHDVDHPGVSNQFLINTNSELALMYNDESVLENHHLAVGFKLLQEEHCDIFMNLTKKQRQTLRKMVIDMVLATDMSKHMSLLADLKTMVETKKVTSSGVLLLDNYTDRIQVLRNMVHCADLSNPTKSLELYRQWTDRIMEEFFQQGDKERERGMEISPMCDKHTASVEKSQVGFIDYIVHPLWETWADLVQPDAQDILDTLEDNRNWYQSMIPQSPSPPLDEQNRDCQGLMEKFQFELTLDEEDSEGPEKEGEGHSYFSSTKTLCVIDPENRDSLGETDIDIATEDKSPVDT
Assay [2] concerns the target cGMP-inhibited 3',5'-cyclic phosphodiesterase 3A (Homo sapiens, UniProt Q14432). Put plainly: Inhibition of PDE3A.

Chain of cGMP-inhibited 3',5'-cyclic phosphodiesterase 3A (Q14432 whole entry): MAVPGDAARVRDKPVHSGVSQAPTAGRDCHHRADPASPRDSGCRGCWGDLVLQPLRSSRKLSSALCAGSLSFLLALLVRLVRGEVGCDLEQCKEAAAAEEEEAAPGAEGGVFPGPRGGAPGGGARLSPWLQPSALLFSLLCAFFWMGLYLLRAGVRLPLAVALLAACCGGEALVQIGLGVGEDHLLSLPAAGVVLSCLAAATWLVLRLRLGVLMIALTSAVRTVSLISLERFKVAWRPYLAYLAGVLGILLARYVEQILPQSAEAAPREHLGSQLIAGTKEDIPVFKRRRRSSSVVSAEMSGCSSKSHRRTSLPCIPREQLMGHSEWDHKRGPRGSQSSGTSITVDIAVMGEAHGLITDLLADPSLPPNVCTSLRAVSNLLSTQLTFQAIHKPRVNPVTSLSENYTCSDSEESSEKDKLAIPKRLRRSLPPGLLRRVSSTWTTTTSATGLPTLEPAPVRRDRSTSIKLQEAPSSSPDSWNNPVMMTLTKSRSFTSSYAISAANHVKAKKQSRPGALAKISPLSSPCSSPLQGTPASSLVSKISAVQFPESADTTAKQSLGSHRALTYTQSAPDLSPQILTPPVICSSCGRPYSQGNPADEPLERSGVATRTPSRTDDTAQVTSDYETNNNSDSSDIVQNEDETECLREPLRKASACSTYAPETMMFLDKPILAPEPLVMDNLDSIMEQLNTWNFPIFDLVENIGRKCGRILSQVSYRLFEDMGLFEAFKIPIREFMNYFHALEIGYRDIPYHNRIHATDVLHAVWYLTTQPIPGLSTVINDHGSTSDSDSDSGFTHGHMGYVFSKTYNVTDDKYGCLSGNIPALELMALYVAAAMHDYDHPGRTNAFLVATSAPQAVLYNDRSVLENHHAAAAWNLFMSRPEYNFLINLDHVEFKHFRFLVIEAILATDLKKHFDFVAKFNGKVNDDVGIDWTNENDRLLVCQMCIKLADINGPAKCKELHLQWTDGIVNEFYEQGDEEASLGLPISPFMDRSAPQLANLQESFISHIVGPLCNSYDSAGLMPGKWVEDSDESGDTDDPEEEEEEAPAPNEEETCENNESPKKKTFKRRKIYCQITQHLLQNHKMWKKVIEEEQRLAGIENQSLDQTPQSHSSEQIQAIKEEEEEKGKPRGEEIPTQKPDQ

Regarding `COc1ccc(/C=C2\SC(=S)N(C)C2=O)cc1OC`, the result in assay [1] was inactive.

Compound `COc1cc(/C=C2\SC(=S)NC2=O)cc(OC)c1OC` had a pIC50 in assay [1] of 4.19.

Consider `COc1cccc(/C=C2\SC(=S)NC2=O)c1`, for which, in assay [1], the result was inactive.

`O=C1NC(=S)S/C1=C\c1ccc2c(c1)OCO2`: the outcome in assay [1] was inactive.

`CCOc1ccc(/C=C2\SC(=S)NC2=O)cc1OC`: the pIC50 in assay [2] was 5.02; in assay [1], 5.16.

Take `COc1ccc(/C=C2\SC(=S)NC2=O)cc1OCc1ccccc1`: the result in assay [1] was inactive.

`COc1ccc(C2CNC(=O)C2)cc1OC1CCCC1` (stereo not drawn): the outcome in assay [2] was inactive.

In the case of `COc1cc(/C=C2\SC(=S)NC2=O)ccc1OC1CCCC1`, the pIC50 was 4.55 in assay [2] and 4.52 in assay [1].

Consider `C=CCOc1cc(/C=C2\SC(=S)NC2=O)ccc1OC`, for which the result in assay [2] was inactive. Besides, the pIC50 in assay [1] is 5.51.

`CCN1C(=O)/C(=C/c2ccc(OC)c(OC)c2)SC1=S`: the outcome in assay [1] was inactive.

As for `CCN1C(=O)/C(=C/c2ccc(OC)c(O)c2)SC1=S`, in assay [2], the outcome was inactive. Moreover, the pIC50 in assay [1] is 4.95.

With `COc1ccc(/C=C2\SC(=S)NC2=O)cc1OC` (stereo in doubt; 10a) [listing 1 of 2 here], in assay [2], the result was inactive.

For `C=CCN1C(=O)/C(=C/c2ccc(OC)c(OC)c2)SC1=S`, the result in assay [1] was inactive.

Turning to `CCOc1ccc(/C=C2\SC(=S)NC2=O)cc1OC1CCCC1`, the values for the pIC50 in assay [2] and in assay [1] were 4.60 and 5.73, respectively.

Consider `COc1ccc(/C=C2\SC(=O)N(Cc3ccccc3)C2=O)cc1OC1CCCC1`, for which the result in assay [1] was inactive.

For the compound `C=CCN1C(=O)/C(=C/c2ccc(OC)c(OC3CCCC3)c2)SC1=S`, the result in assay [2] was inactive. The pIC50 in assay [1] is 5.38.

For `COc1ccc(/C=C2\CCNC2=O)cc1OC1CCCC1`, in assay [2], the outcome was inactive. The compound further had a pIC50 in assay [1] of 5.40.

As for `COc1ccc(/C=C2\SC(=S)N(CC(=O)O)C2=O)cc1OC`, the result in assay [1] was inactive.

With `COc1ccc(/C=C2\SC(=S)NC2=O)cc1`, in assay [1], the result was inactive.

In the case of `COc1ccc(/C=C2\SC(=S)N(CC(=O)O)C2=O)cc1OC1CCCC1`, the result in assay [2] was inactive. In addition, the pIC50 in assay [1] is 5.51.

As for `CCOc1cc(/C=C2\SC(=S)NC2=O)ccc1OC`, the pIC50 in assay [2] was 4.40; in assay [1], 5.28.

As to `COc1ccc(/C=C2\SC(=S)NC2=O)cc1O`, the outcome in assay [1] was inactive.

In the case of `O=C1NC(=S)S/C1=C\c1ccc(O)c(O)c1`, the outcome in assay [1] was inactive.

Regarding `COc1ccc(/C=C2\SC(=S)N(C)C2=O)cc1OC1CCCC1`, in assay [2], the result was inactive. The pIC50 in assay [1] was 5.54.

Take `COc1cc(/C=C2\SC(=S)NC2=O)ccc1O`: the result in assay [1] was inactive.

Turning to `COc1ccc(/C=C2\SC(=S)NC2=O)cc1OC1CCCCC1`, the outcome in assay [2] was inactive. Besides, the pIC50 in assay [1] was 5.71.

`COc1ccc(/C=C2\SC(=S)NC2=O)cc1OC` (stereo in doubt; 2a): the results for the pIC50 in assay [2] and in assay [1] were 4.98 and 4.75, respectively.

In the case of `COc1ccc(/C=C2\SC(=O)NC2=O)cc1OC1CCCC1`, the result in assay [2] was inactive. In assay [1], the pIC50 is 5.96.

As to `CCN1C(=O)/C(=C/c2ccc(O)c(OC)c2)SC1=S`, the result in assay [2] was inactive. In assay [1], this compound showed a pIC50 of 6.13.

For the compound `COc1ccc(/C=C2\SC(=S)NC2=O)cc1OC` (stereo in doubt; 10a) [listing 2 of 2 here], in assay [1], the pIC50 was 4.55.

Take `CCOc1ccc(/C=C2\SC(=S)NC2=O)cc1OCC`: the pIC50 in assay [2] is 4.10; in assay [1], 5.19.

In assay [1], `COc1cccc(/C=C2\SC(=S)NC2=O)c1OC` showed a pIC50 of 4.26.

Consider `COc1ccc(/C=C2\SC(=S)NC2=O)cc1OC1CCCC1`, for which the pIC50 in assay [2] was 4.97; in assay [1], 6.05.

Take `COc1ccc(/C=C2\SC(=N)NC2=O)cc1OC1CCCC1` [PSEUDOTHIOHYDANTOIN]: the result in assay [2] was inactive. In assay [1], this compound gave a pIC50 of 6.51.

For `COc1ccc(/C=C2\SC(=O)NC2=O)cc1OC`, the outcome in assay [2] was inactive. For the same compound, the pIC50 in assay [1] is 4.85.
